Experimental data published in patent US10758534B2 (Vertex Pharmaceuticals Incorporated, priority 2014, dated 2020).

Each molecule was assayed against T1, F508del (Homo sapiens, UniProt P13569, DEL508-508) (assay: Protocol 1: membrane potential optical assay (FLIPR III, voltage sensing dye), identification of potentiator compounds). Settings: Table 3, compounds of Table 1.
T1 construct: expressed in transfected cells
Format: cell-based
Summary of the method: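 Mouse NIH 3T3 fibroblasts stably expressing F508del, temperature-corrected at 27 °C for 24 h, pretreated with compound, then loaded with voltage-sensing redistribution dye. Forskolin was added in a single step with a chloride gradient (chloride-free gluconate bath; Bath Solution #1 HEPES pH 7.4). Membrane-potential fluorescence read on FLIPR III.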

T1 sequence (P13569 with tags, fused parts or gaps DEL508-508): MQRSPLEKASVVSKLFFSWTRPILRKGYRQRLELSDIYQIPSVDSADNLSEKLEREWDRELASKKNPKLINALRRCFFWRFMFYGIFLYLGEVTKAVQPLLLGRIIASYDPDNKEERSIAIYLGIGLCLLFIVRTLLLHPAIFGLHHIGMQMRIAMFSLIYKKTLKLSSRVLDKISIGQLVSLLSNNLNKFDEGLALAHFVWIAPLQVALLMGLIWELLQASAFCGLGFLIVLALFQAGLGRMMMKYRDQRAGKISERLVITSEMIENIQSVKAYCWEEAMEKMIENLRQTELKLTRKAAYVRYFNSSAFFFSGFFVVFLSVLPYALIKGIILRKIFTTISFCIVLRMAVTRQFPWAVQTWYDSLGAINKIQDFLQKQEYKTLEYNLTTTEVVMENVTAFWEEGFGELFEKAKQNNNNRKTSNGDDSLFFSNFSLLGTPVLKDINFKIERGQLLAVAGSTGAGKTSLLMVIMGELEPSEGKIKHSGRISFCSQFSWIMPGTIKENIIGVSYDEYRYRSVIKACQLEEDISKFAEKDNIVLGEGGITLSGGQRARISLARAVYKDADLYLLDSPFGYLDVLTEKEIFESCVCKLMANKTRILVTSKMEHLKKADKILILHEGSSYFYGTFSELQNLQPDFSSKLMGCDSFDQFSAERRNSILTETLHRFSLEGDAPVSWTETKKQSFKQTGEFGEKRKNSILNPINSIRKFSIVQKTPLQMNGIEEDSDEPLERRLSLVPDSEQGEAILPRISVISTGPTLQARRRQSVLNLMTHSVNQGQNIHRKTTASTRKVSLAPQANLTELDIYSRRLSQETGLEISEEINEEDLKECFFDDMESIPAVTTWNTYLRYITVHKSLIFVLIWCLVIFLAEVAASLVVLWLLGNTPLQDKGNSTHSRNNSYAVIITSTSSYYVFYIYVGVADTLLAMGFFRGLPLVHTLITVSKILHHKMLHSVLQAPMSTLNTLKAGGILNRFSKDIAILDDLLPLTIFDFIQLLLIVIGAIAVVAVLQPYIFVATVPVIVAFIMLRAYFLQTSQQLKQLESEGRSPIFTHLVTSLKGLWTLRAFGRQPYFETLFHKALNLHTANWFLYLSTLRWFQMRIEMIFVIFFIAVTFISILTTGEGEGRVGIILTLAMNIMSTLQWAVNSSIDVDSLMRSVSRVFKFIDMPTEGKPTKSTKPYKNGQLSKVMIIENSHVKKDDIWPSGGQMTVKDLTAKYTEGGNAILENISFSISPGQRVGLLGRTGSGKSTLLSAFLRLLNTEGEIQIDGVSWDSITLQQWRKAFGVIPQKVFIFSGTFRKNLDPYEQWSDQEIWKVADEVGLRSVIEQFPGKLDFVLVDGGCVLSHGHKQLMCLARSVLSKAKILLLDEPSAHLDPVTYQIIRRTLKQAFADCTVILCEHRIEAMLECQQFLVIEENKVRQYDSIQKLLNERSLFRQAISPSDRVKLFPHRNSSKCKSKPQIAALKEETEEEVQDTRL

| SMILES | EC30 |
| --- | --- |
| CC1CN(c2ncccc2C(=O)NS(=O)(=O)c2cccc(Nc3cccc(Cl)c3Cl)n2)C(C)(C)C1 (centres unmarked) [Compound 1906, N—[[6-(2,3-dichloroanilino)-2-pyridyl]sulfonyl]-2-(2,2,4-trimethylpyrrolidin-1-yl)pyridine-3-carboxamide] | +++ (“+++” means <3 uM) |
| CCN(CC)c1nc(-c2ccc(C(=O)NS(=O)(=O)c3cccc(N)n3)c(N3CC(C)CC3(C)C)n2)ccc1C (centres unmarked) [Compound 1907, N-[(6-amino-2-pyridyl)sulfonyl]-6-[6-(diethylamino)-5-methyl-2-pyridyl]-2-(2,2,4-trimethylpyrrolidin-1-yl)pyridine-3-carboxamide] | +++ (“+++” means <3 uM) |
| CC1CN(c2ncccc2C(=O)NS(=O)(=O)c2cccc(OC3CCCCC3)n2)C(C)(C)C1 (centres unmarked) [Compound 1908, N—[[6-(cyclohexoxy)-2-pyridyl]sulfonyl]-2-(2,2,4-trimethylpyrrolidin-1-yl)pyridine-3-carboxamide] | +++ (“+++” means <3 uM) |
| CC1CN(c2ncccc2C(=O)NS(=O)(=O)c2cccc(Nc3ccc4c(c3)CCC4)n2)C(C)(C)C1 (centres unmarked) [Compound 1909, N—[[6-(indan-5-ylamino)-2-pyridyl]sulfonyl]-2-(2,2,4-trimethylpyrrolidin-1-yl)pyridine-3-carboxamide] | +++ (“+++” means <3 uM) |
| Cc1ccc(-c2ccc(C(=O)NS(=O)(=O)c3cccc(N)n3)c(N3C[C@@H](C)CC3(C)C)n2)c(F)c1 [Compound 1910, N-[(6-amino-2-pyridyl)sulfonyl]-6-(2-fluoro-4-methyl-phenyl)-2-[(4S)-2,2,4-trimethylpyrrolidin-1-yl]pyridine-3-carboxamide] | +++ (“+++” means <3 uM) |
| CC(C)C(C)c1ccc(C(=O)NS(=O)(=O)c2cccnc2N)c(N2C[C@@H](C)CC2(C)C)n1 (stereo partly drawn) [Compound 1911, N-[(2-amino-3-pyridyl)sulfonyl]-6-(1,2-dimethylpropyl)-2-[(4S)-2,2,4-trimethylpyrrolidin-1-yl]pyridine-3-carboxamide] | +++ (“+++” means <3 uM) |
| CC(C)COc1cnn(-c2ccc(C(=O)NS(=O)(=O)c3ccccc3)c(N3C[C@@H](C)CC3(C)C)n2)c1 [Compound 1912, N-(benzenesulfonyl)-6-(4-isobutoxypyrazol-1-yl)-2-[(4S)-2,2,4-trimethylpyrrolidin-1-yl]pyridine-3-carboxamide] | +++ (“+++” means <3 uM) |
| COc1cc(F)c(-c2ccc(C(=O)NS(=O)(=O)c3ccc[nH]c3=O)c(N3C[C@@H](C)CC3(C)C)n2)cc1F [Compound 1913, 6-(2,5-difluoro-4-methoxy-phenyl)-N-[(2-oxo-1H-pyridin-3-yl)sulfonyl]-2-[(4S)-2,2,4-trimethylpyrrolidin-1-yl]pyridine-3-carboxamide] | +++ (“+++” means <3 uM) |
| COc1cc(-c2ccc(C(=O)NS(=O)(=O)c3ccc[nH]c3=O)c(N3C[C@@H](C)CC3(C)C)n2)cc(F)c1F [Compound 1914, 6-(3,4-difluoro-5-methoxy-phenyl)-N-[(2-oxo-1H-pyridin-3-yl)sulfonyl]-2-[(4S)-2,2,4-trimethylpyrrolidin-1-yl]pyridine-3-carboxamide] | +++ (“+++” means <3 uM) |
| CCN(CC)c1ncc(-c2ccc(C(=O)NS(=O)(=O)c3cccc(N)n3)c(N3C[C@@H](C)CC3(C)C)n2)cc1C [Compound 1915, N-[(6-amino-2-pyridyl)sulfonyl]-6-[6-(diethylamino)-5-methyl-3-pyridyl]-2-[(4S)-2,2,4-trimethylpyrrolidin-1-yl]pyridine-3-carboxamide] | +++ (“+++” means <3 uM) |
| CCCC/C=C/c1cnc(N2CC(C)CC2(C)C)c(C(=O)NS(=O)(=O)c2cccc(N)n2)c1 (centres unmarked) [Compound 1916, N-[(6-amino-2-pyridyl)sulfonyl]-5-[(E)-hex-1-enyl]-2-(2,2,4-trimethylpyrrolidin-1-yl)pyridine-3-carboxamide] | +++ (“+++” means <3 uM) |
| CC1CN(c2ncccc2C(=O)NS(=O)(=O)c2cccc(OC(C)c3ccccc3)n2)C(C)(C)C1 (centres unmarked) [Compound 1917, N—[[6-(1-phenylethoxy)-2-pyridyl]sulfonyl]-2-(2,2,4-trimethylpyrrolidin-1-yl)pyridine-3-carboxamide] | +++ (“+++” means <3 uM) |
| CC1CN(c2ncc(-c3cccc(OC4CCCC4)c3)cc2C(=O)NS(=O)(=O)c2cccc(N)n2)C(C)(C)C1 (centres unmarked) [Compound 1918, N-[(6-amino-2-pyridyl)sulfonyl]-5-[3-(cyclopentoxy)phenyl]-2-(2,2,4-trimethylpyrrolidin-1-yl)pyridine-3-carboxamide] | +++ (“+++” means <3 uM) |
| CC(C)COc1cc(F)cc(-c2ccc(C(=O)NS(=O)(=O)c3cccc(N)n3)c(N3CCC3(C)C)n2)c1 [Compound 1928, N-[(6-amino-2-pyridyl)sulfonyl]-2-(2,2-dimethylazetidin-1-yl)-6-(3-fluoro-5-isobutoxy-phenyl)pyridine-3-carboxamide] | ++ (“++” means between 3 uM and 10 uM) |

Results, then the molecule that gave them:

| EC30 | SMILES |
| --- | --- |
| +++ (“+++” means <3 uM) | CC1CN(c2ncccc2C(=O)NS(=O)(=O)c2cccc(OC(C)C3CCCCC3)n2)C(C)(C)C1 (centres unmarked) [Compound 1919, N—[[6-(1-cyclohexylethoxy)-2-pyridyl]sulfonyl]-2-(2,2,4-trimethylpyrrolidin-1-yl)pyridine-3-carboxamide] |
| ++ (“++” means between 3 uM and 10 uM) | COC1CC=C(c2cnc(N3CC(C)CC3(C)C)c(C(=O)NS(=O)(=O)c3cccc(N)n3)c2)CC1 (centres unmarked) [Compound 1920, N-[(6-amino-2-pyridyl)sulfonyl]-5-(4-methoxycyclohexen-1-yl)-2-(2,2,4-trimethylpyrrolidin-1-yl)pyridine-3-carboxamide] |
| +++ (“+++” means <3 uM) | CC1CN(c2ncc(-c3ccccc3C(F)(F)F)cc2C(=O)NS(=O)(=O)c2cccc(N)n2)C(C)(C)C1 (centres unmarked) [Compound 1921, N-[(6-amino-2-pyridyl)sulfonyl]-5-[2-(trifluoromethyl)phenyl]-2-(2,2,4-trimethylpyrrolidin-1-yl)pyridine-3-carboxamide] |
| +++ (“+++” means <3 uM) | Cc1ccc(-c2ccc(C(=O)NS(=O)(=O)c3cccc(N)n3)c(N3C[C@@H](C)CC3(C)C)n2)cc1F [Compound 1922, N-[(6-amino-2-pyridyl)sulfonyl]-6-(3-fluoro-4-methyl-phenyl)-2-[(4S)-2,2,4-trimethylpyrrolidin-1-yl]pyridine-3-carboxamide] |
| ++ (“++” means between 3 uM and 10 uM) | Cc1cc(-c2ccc(C(=O)NS(=O)(=O)c3cccnc3N)c(N3C[C@@H](C)CC3(C)C)n2)cc(C)c1O [Compound 1923, N-[(2-amino-3-pyridyl)sulfonyl]-6-(4-hydroxy-3,5-dimethyl-phenyl)-2-[(4S)-2,2,4-trimethylpyrrolidin-1-yl]pyridine-3-carboxamide] |
| +++ (“+++” means <3 uM) | CCOc1ccc(Oc2cccc(S(=O)(=O)NC(=O)c3cccnc3N3CC(C)CC3(C)C)n2)cc1 (centres unmarked) [Compound 1924, N—[[6-(4-ethoxyphenoxy)-2-pyridyl]sulfonyl]-2-(2,2,4-trimethylpyrrolidin-1-yl)pyridine-3-carboxamide] |
| +++ (“+++” means <3 uM) | C[C@@H]1CN(c2nc(-c3cccc(F)c3)ccc2C(=O)NS(=O)(=O)c2ccc[nH]c2=O)C(C)(C)C1 [Compound 1925, 6-(3-fluorophenyl)-N-[(2-oxo-1H-pyridin-3-yl)sulfonyl]-2-[(4S)-2,2,4-trimethylpyrrolidin-1-yl]pyridine-3-carboxamide] |
| +++ (“+++” means <3 uM) | CC1CN(c2ncccc2C(=O)NS(=O)(=O)c2cccc(Oc3cccc(C(C)(C)C)c3)n2)C(C)(C)C1 (centres unmarked) [Compound 1926, N—[[6-(3-tert-butylphenoxy)-2-pyridyl]sulfonyl]-2-(2,2,4-trimethylpyrrolidin-1-yl)pyridine-3-carboxamide] |
| +++ (“+++” means <3 uM) | COc1cccc(-c2ccc(C(=O)NS(=O)(=O)c3ccc[nH]c3=O)c(N3C[C@@H](C)CC3(C)C)n2)c1 [Compound 1927, 6-(3-methoxyphenyl)-N-[(2-oxo-1H-pyridin-3-yl)sulfonyl]-2-[(4S)-2,2,4-trimethylpyrrolidin-1-yl]pyridine-3-carboxamide] |
| +++ (“+++” means <3 uM) | CC1CN(c2ncccc2C(=O)NS(=O)(=O)c2cccc(OCc3ccc(Cl)cc3Cl)n2)C(C)(C)C1 (centres unmarked) [Compound 1929, N—[[6-[(2,4-dichlorophenyl)methoxy]-2-pyridyl]sulfonyl]-2-(2,2,4-trimethylpyrrolidin-1-yl)pyridine-3-carboxamide] |
| +++ (“+++” means <3 uM) | Cc1cc(-c2ccc(C(=O)NS(=O)(=O)c3cccc(N)n3)c(N3C[C@@H](C)CC3(C)C)n2)ccc1F [Compound 1930, N-[(6-amino-2-pyridyl)sulfonyl]-6-(4-fluoro-3-methyl-phenyl)-2-[(4S)-2,2,4-trimethylpyrrolidin-1-yl]pyridine-3-carboxamide] |
| +++ (“+++” means <3 uM) | CCOc1cc(-c2ccc(C(=O)NS(=O)(=O)c3cccc(N)n3)c(N3C[C@@H](C)CC3(C)C)n2)cc(C)c1C [Compound 1931, N-[(6-amino-2-pyridyl)sulfonyl]-6-(3-ethoxy-4,5-dimethyl-phenyl)-2-[(4S)-2,2,4-trimethylpyrrolidin-1-yl]pyridine-3-carboxamide] |
| +++ (“+++” means <3 uM) | CC1CN(c2ncccc2C(=O)NS(=O)(=O)c2cccc(N3CCCCCC3)n2)C(C)(C)C1 (centres unmarked) [Compound 1932, N—[[6-(azepan-1-yl)-2-pyridyl]sulfonyl]-2-(2,2,4-trimethylpyrrolidin-1-yl)pyridine-3-carboxamide] |
| +++ (“+++” means <3 uM) | CC1CN(c2ncccc2C(=O)NS(=O)(=O)c2cccc(Nc3cc4ccccc4cn3)n2)C(C)(C)C1 (centres unmarked) [Compound 1933, N—[[6-(3-isoquinolylamino)-2-pyridyl]sulfonyl]-2-(2,2,4-trimethylpyrrolidin-1-yl)pyridine-3-carboxamide] |
| +++ (“+++” means <3 uM) | C[C@@H]1CN(c2nc(-c3cccc(OC(F)(F)F)c3)ccc2C(=O)NS(=O)(=O)c2ccc[nH]c2=O)C(C)(C)C1 [Compound 1934, N-[(2-oxo-1H-pyridin-3-yl)sulfonyl]-6-[3-(trifluoromethoxy)phenyl]-2-[(4S)-2,2,4-trimethylpyrrolidin-1-yl]pyridine-3-carboxamide] |
